Data on 1 molecule can be found in US20220031797A1, “PHARMACEUTICAL COMPOSITIONS CONTAINING HYALURONIC ACID AND CARNOSINE AND RELATIVE USE” (FIDIA FARMACEUTICI S.P.A., priority 2017, published 2022).

The assay deals with Monosodium Iodoacetate (MIA) Osteoarthritis in Rats. The assay is described as follows: MIA-induced osteoarthritis in rats, oral treatment, histological evaluation (modified Mankin score). Conditions: oral every 24 hours day 3-20, conjugate of Example 2 (35% mol/mol) 88.5 mg/kg, mixture 16.2 mg/kg carnosine + 72.3 mg/kg HA, naproxen 10 mg/kg, day 21, versus MIA-control, FIG. 7. The assay is classed as in vivo. The method, then:
OA was induced in the posterior knee joints of the rats being tested, by the intra-articular injection of MIA: 25 μl of saline containing 1 mg/kg of MIA were injected into the joint (knee) of the right paw of each animal (under treatment) through the infrapatal ligament, whereas the left joint received an equal volume of saline 0.9% (Sagar D R et al, Ann. Rheum. Dis., 2013, 73: 1558-1565).
Male Sprague-Dawley rats, of about 230 g each, were used, 20 rats per group.
Group 1: MIA-control: the animals were treated by MIA induction and subsequently with distilled water administered orally every 24 hours from the 3rd day after MIA until the 20th day, end of the experimentation.
Group 2: MIA+HA/carnosine conjugate: the animals were treated by MIA induction and subsequently with the above-mentioned conjugate every 24 hours from the 3rd day after MIA until the 20th day. The conjugate used for the experimentation was prepared according to Example 2, it was then derivatized at 35% mol/mol, the dose, administered orally, was equal to 88.5 mg/kg of conjugate (16.2 mg of carnosine and 72.3 mg of HA).
Group 3: MIA+HA/carnosine mixture: the animals were treated by MIA induction and subsequently with HA/carnosine every 24 hours starting from the 3rd day after MIA up to the 20th day. […]

Regarding `COc1ccc2cc([C@H](C)C(=O)O)ccc2c1` [naproxen], the “Histological evaluation (modified Mankin Histological score 0-12; histological damage and cartilage degeneration)” value was “totally comparable to the effect elicited by naproxen”.
